Where “and” joins values, the source holds several entries; their conditions need not be identical. Equal entries are not always repeated.
What was measured:
TBE virus strain Sof′ in = tested on: TBE virus strain Sof′ in; parameters: species or system white mice; conditions: mouse, in vivo
[1] = tested on: human rhinovirus strain (HRV 1B); assay: Antiviral activity against human rhinovirus on an in vivo experimental model (virus in mouse lungs); parameters: species or system mice; conditions: for Infectious virus titer in lungs, lg, TCID50: orally once daily for 3 days from 12 h after infection; for Suppression of the virus reproduction (Δ lg): orally once daily for 3 days, vs normal saline
dengue fever virus = assay: Experimental form of dengue fever, virus proliferation in the blood of white mice; type: in vivo; conditions: for Level of virus accumulation in the blood, lg PFU/ml: infected intracerebrally
Experimental: To determine antiviral activity, white mice were infected intracerebrally with a dengue fever virus. […] Infected animals were monitored for 21 days. Biological samples were evaluated on day 5 after infection.

[2] = Adverse side effects during long-term administration; conditions: long-term administration in therapeutic doses or doses greater by an order of magnitude
HCXV virus = assay: Protective effectiveness against Coxsackie virus (HCXV) infection in mice; type: in vivo, white mice; conditions: for Total mortality rate: 10LD50 intramuscularly
[3] = tested on: West Nile virus strain Eg101; assay: Experimental form of West Nile Fever in white mice; conditions: for Protective ratio, % / Average lifetime / Extension of the average lifetime, Δ: 5 mg/kg orally; for Protective ratio, %: 10LD50 subcutaneously; for Average lifetime / Extension of the average lifetime, Δ: 10LD50
Experimental: In the experiment West Nile virus strain Eg101 was used. Infected animals were monitored for 21 days. Their death was controlled, and the average lifetime of the white mice were calculated in the experimental and control groups.
The main criteria of the in vivo effectiveness were the values of protection of the laboratory animals against death and the average lifetime of the animals in a group.

[4] = 5 mg/kg orally, prevention scheme −96 h to −1 h
[5] = 5 mg/kg orally, treatment scheme +24 h to +168 h
[6] = 30/15 mg/kg, treatment scheme +24 h to +120 h
[7] = 0.3 mg/kg orally once daily for 5 days from 24 h after infection
[8] = 3 mg/kg orally once daily for 5 days from 24 h after infection
[9] = 30 mg/kg orally once daily for 5 days from 24 h after infection
[10] = prevention scheme −96 h to −1 h
[11] = treatment scheme +24 h to +168 h
[12] = 30 mg/kg, single administration −144 h before infection
[13] = ribavirin, treatment scheme +24 h to +120 h
[14] = 20 mg/kg, treatment scheme +24 h to +120 h

With `O=C(O)CCCC(=O)NCCc1c[nH]cn1` [Glutaryl histamine, glutaryl histamine] the “Average lifetime” value (TBE virus strain Sof′ in) was 15.1 days and 15.4 days and 13.6 days and 10.5 days and 10.1 days, the “Extension of the average lifetime” value (TBE virus strain Sof′ in) was 3.1 days and 3.2 days and the “Extension of the average lifetime, Δ” value (TBE virus strain Sof′ in) was 3.9 days and 2.4 days. The “Protection against death, %” value (TBE virus strain Sof′ in) was 30.0% and 40.0%, the “Protective ratio, %” value (TBE virus strain Sof′ in) was 40% and 35% and the “Infectious virus titer in lungs, lg, TCID50” value (from here on “Infectious virus titer”) ([1]; 15 mg/ml, 48 hrs) was 2.8 ± 0.4 lg, TCID50. The “Infectious virus titer” value ([1]; 15 mg/ml, 72 hrs) was 2.1 ± 0.3 lg, TCID50, the “Suppression of the virus reproduction (Δ lg)” value (shortened to “Suppression … (Δ lg)”) ([1]; 15 mg/ml, 48 hrs) was 1.3 Δ lg and the “Suppression … (Δ lg)” value ([1]; 15 mg/ml, 72 hrs) was 1.1 Δ lg. The “Infectious virus titer” value ([1]; 30 mg/ml, 48 hrs) was 1.5 ± 0.3 lg, TCID50, the “Infectious virus titer” value ([1]; 30 mg/ml, 72 hrs) was 1.0 ± 0.3 lg, TCID50 and the “Suppression … (Δ lg)” value ([1]; 30 mg/ml, 48 hrs) was 2.6 Δ lg. The “Suppression … (Δ lg)” value ([1]; 30 mg/ml, 72 hrs) was 2.2 Δ lg, the “Degree of inhibition of the virus accumulation, %” value (“Degree of inhibition … %” for short) (dengue fever virus; [4]) was 95.5% and the “Reduction in the level of virus accumulation, lg” value (“Reduction in the level” for short) (dengue fever virus; [4]) was 1.6 lg. The “Level of virus accumulation in the blood, lg PFU/ml” value (“Level … lg PFU/ml” below) (dengue fever virus; 5 mg/kg orally, prevention scheme −96 h to −1 h, day 5 after infection) was 5.0 lg PFU/ml, the “Degree of inhibition … %” value (dengue fever virus; [5]) was 98.6% and the “Reduction in the level” value (dengue fever virus; [5]) was 1.8 lg. For the same molecule, the “Level … lg PFU/ml” value (dengue fever virus; 5 mg/kg orally, treatment scheme +24 h to +168 h, day 5 after infection) was 4.8 lg PFU/ml, the “Degree of inhibition … %” value (dengue fever virus; [6]) was 99.6% and the “Reduction in the level” value (dengue fever virus; [6]) was 2.6 lg. For the same molecule, the “Level … lg PFU/ml” value (dengue fever virus; [6]) was 4.8 lg PFU/ml, the Adverse side effects [2] was “no adverse side effects have been registered” and the “Average lifetime, (%)” value (HCXV virus; [7]) was 24.4%. For the same molecule, the “Extension of the days lifetime, Δ, days” value (HCXV virus; [7]) was “+14.4 days”, the “Protective ratio, % average” value (HCXV virus; [7]) was 45.4% and the Total mortality rate (HCXV virus; [7]) was 42.9. For the same molecule, the “Average lifetime, (%)” value (HCXV virus; [8]) was 21.7%, the “Extension of the days lifetime, Δ, days” value (HCXV virus; [8]) was “+11.7 days” and the “Protective ratio, % average” value (HCXV virus; [8]) was 36.4%. For the same molecule, the Total mortality rate (HCXV virus; [8]) was 50.0, the “Average lifetime, (%)” value (HCXV virus; [9]) was 19.6% and the “Extension of the days lifetime, Δ, days” value (HCXV virus; [9]) was “+9.6 days”. The “Protective ratio, % average” value (HCXV virus; [9]) was 27.4%, the Total mortality rate (HCXV virus; [9]) was 57.1 and the “Protective ratio, %” value ([3]; prevention scheme −96 h, −72 h, −48 h, −24 h, −1 h) was 42.9%. The “Average lifetime” value [3, 10] was 11.2 days, the “Extension of the average lifetime, Δ” value [3, 10] was 4.2 days and the “Average lifetime” value [3, 11] was 9.8 days. For the same molecule, the “Extension of the average lifetime, Δ” value [3, 11] was 2.8 days, the “Protective ratio, %” value [3, 11] was 37.8% and the “Average lifetime of animals in a group” value [3, 12] was 10.8 days. For the same molecule, the “Extension of the average lifetime of animals in a group, Δ” value (from here on “Extension … in a group, Δ”) [3, 12] was 3.7 days, the “Protection against death, %” value [3, 12] was 40.0% and the “Protection against death, %” value ([3]; 30/15 mg/kg, treatment scheme +24 h, +48 h, +72 h, +96 h, +120 h) was 50.0%. The “Average lifetime of animals in a group” value [3, 6] was 11.5 days, the “Extension … in a group, Δ” value [3, 6] was 4.5 days and the “Extension … in a group, Δ” value ([3]; 30/15 mg/kg, treatment scheme +24 h to +120 h, listed as glutaryl histamine) was 3.5 days.

For `NC(=O)c1ncn([C@@H]2O[C@H](CO)[C@@H](O)[C@H]2O)n1` [Ribavirin, ribavirin, reference compound], the “Degree of inhibition … %” value (dengue fever virus; [13]) was 83.4%, the “Reduction in the level” value (dengue fever virus; [13]) was 1.0 lg and the “Level … lg PFU/ml” value (dengue fever virus; [13]) was 6.4 lg PFU/ml. For the same molecule, the “Protection against death, % of animals” value ([3]; 20 mg/kg, prevention scheme) was 50%, the “Average lifetime of animals in a group” value [3, 14] was 7.2 days and the “Extension … in a group, Δ” value [3, 14] was 0.2 days. The “Protection against death, %” value [3, 14] was 10.0%.

Source: patent US9820970B2, “Method and agent for the treatment and prophylaxis of diseases caused by (+)RNA-containing viruses” (OBSSCHESTVO S OGRANICHENNOI OTVETSTVENNOSTIYU …, priority 2012, dated 2017)
